Assay: Roller compaction processability observation and in-process data
Conditions: unformulated
Description: Formulations were manufactured at 100 g scale by roller compaction using the compositions as described in Table 17. The formulations were designed to evaluate the effect of formulation variables including drug loading, ratios of diluents and levels of other excipients on the processability, as shown in Table 17.
In the tables above, BD refers to Bulk Density, DT refers to Disintegration time, HR refers to Hausner ratio and TD refers to tapped density. Disintegration time is for a 0.5-inch ribbon. The plus signs in the table refer to the following observed characteristics: “+” is soft, “++” is medium hard, “+++” is hard, and “++++” is very hard.
To improve the flow properties of the sepiapterin composition of the invention, a dry granulation approach was selected. The manufacturing process included preblending, roller compaction followed by milling, final blending, and sachet filling. The batch analyses data from the selected manufacturing process yielded acceptable drug product within the specification limit. […]

bulk density: low bulk density | flow characteristics: poor flow characteristics
Structure (SMILES): C[C@H](O)C(=O)C1=Nc2c(nc(N)[nH]c2=O)NC1 [sepiapterin]

From US20250041305A1, “PHARMACEUTICAL COMPOSITION OF SEPIAPTERIN” (PTC Therapeutics, Inc., priority 2021, published 2025)
